# Test results taken from US11802120B2, “Fused cyclic urea derivatives as CRHR2 antagonist” (RaQualia Pharma Inc., priority 2018, dated 2023).
# Biological target: T1, human CRHR2-alpha (Homo sapiens, UniProt Q13324)
# T1 sequence (Q13324 1-411): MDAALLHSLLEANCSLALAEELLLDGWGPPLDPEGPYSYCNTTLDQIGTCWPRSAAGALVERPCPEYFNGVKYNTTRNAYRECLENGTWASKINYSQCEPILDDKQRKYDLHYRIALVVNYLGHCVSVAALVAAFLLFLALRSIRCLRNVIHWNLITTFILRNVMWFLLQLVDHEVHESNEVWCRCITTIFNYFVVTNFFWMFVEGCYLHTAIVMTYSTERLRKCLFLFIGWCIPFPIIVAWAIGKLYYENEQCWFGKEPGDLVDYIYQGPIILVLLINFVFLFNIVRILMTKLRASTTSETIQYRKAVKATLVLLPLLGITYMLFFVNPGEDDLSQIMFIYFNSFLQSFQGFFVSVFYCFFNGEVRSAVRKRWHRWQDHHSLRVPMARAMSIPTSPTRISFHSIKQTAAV
# Assay: cAMP functional assay for human CRHR2 (LANCE Ultra cAMP, TR-FRET)
# Type: cell-based
# Conditions: CHO-K1 cells expressing human CRHR2-alpha, agonist human urocortin2 at EC80, cAMP; read-out: IC50 against CRHR2
# Summary of the method: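 CHO-K1 stable lines; 4,000 cells/well; compound 30 min, 25° C; EC80 agonist (human urocortin2 → CRHR2, CRF → CRHR1) 30 min, 25° C; buffer HBSS/0.1% BSA/0.5 mM IBMX/5 mM Hepes pH 7.4; Eu-cAMP tracer + ULight antibody 60 min; TR-FRET read; IC50 from % inhibition curves.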
smiles,measurement,value
"O=C(N[C@H]1CC[C@H](Cn2c(=O)n(-c3ccc(N4CCC4=O)nc3)c3ccccc32)CC1)c1cc(Cl)cnc1C(F)F [Example 501, 5-chloro-2-(difluoromethyl)-N-((1r,4r)-4-((2-oxo-3-(6-(2-oxoazetidin-1-yl)pyridin-3-yl)-2,3-dihydro-1H-benzo [d]imidazol-1-yl)methyl)cyclo-hexyl)nicotinamide]",IC50,< 300 nM
"O=C(N[C@H]1CC[C@H](Cn2c(=O)n(-c3ccc(NC(=O)C4CC4)nc3)c3ccccc32)CC1)c1cc(Cl)cnc1C(F)F [Example 502, 5-chloro-N-((1r,4r)-4-((3-(6-(cyclopropanecarboxa-mido)pyridin-3-yl)-2-oxo-2,3-dihydro-1H-benzo[d]imidazol-1-yl)methyl)cyclohexyl)-2-(difluoro-methyl)nicotinamide]",IC50,< 300 nM
"C[C@@H](Oc1ccc(-n2c(=O)n(C[C@H]3CC[C@H](NC(=O)c4cc(Cl)cnc4C(F)F)CC3)c3ccccc32)cn1)C(N)=O [Example 504, N-((1R,4r)-4-((3-(6-(((R)-1-amino-1-oxopropan-2-yl)oxy)pyridin-3-yl)-2-oxo-2,3-dihydro-1H-benzo[d]imidazol-1-yl)methyl)cyclohexyl)-5-chloro-2-(difluoromethyl) nicotinamide]",IC50,< 300 nM
"O=C(N[C@H]1CC[C@H](Cn2c(=O)n(-c3ccc(N4CCOCC4=O)nc3)c3ccccc32)CC1)c1cc(Cl)cnc1C(F)F [Example 505, 5-chloro-2-(difluoromethyl)-N-((1r,4r)-4-((2-oxo-3-(6-(3-oxomorpholino)pyridin-3-yl)-2,3-dihydro-1H-benzo[d]imidazol-1-yl)methyl)cyclo-hexyl)nicotinamide]",IC50,< 300 nM
"Cc1ccc(-n2c(=O)n(C[C@H]3CC[C@H](NC(=O)c4cc(Cl)cnc4C(F)F)CC3)c3nccnc32)cc1 [Example 506, 5-chloro-2-(difluoromethyl)-N-((1r,4r)-4-((2-oxo-3-(p-tolyl)-2,3-dihydro-1H-imidazo[4,5-b]pyrazin-1-yl)methyl)cyclohexyl)nicotinamide]",IC50,< 300 nM
"COc1ccc(C#N)c(-n2c(=O)n(C[C@H]3CC[C@H](NC(=O)c4cc(Cl)cnc4C(F)F)CC3)c3cccnc32)c1 [Example 507, 5-chloro-N-((1r,4r)-4-((3-(2-cyano-5-methoxyphenyl)-2-oxo-2,3-dihydro-1H-imidazo [4,5-b]pyridin-1-yl)methyl)cyclohexyl)-2-(difluoromethyl) nicotinamide]",IC50,< 300 nM
"CC(=O)Nc1ccc(-n2c(=O)n(C[C@H]3CC[C@H](NC(=O)c4cc(Cl)cnc4C(F)F)CC3)c3ccccc32)cn1 [Example 508, N-((1r,4r)-4-((3-(6-aceta-midopyridin-3-yl)-2-oxo-2,3-dihydro-1H-benzo[d]imidazol-1-yl)methyl)cyclo-hexyl)-5-chloro-2-(difluoro-methyl)nicotinamide]",IC50,< 300 nM
"O=C(N[C@H]1CC[C@H](Cn2c(=O)n(-c3ccc(N4CCCCC4=O)nc3)c3ccccc32)CC1)c1cc(Cl)cnc1C(F)F [Example 509, 5-chloro-2-(difluoromethyl)-N-((1r,4r)-4-((2-oxo-3-(6-(2-oxopiperidin-1-yl)pyridin-3-yl)-2,3-dihydro-1H-benzo[d]imidazol-1-yl)methyl)cyclohexyl)nicotinamide]",IC50,< 300 nM
"CCC(=O)Nc1ccc(-n2c(=O)n(C[C@H]3CC[C@H](NC(=O)c4cc(Cl)cnc4C(F)F)CC3)c3ccccc32)cn1 [Example 510, 5-chloro-2-(difluoromethyl)-N-((1r,4r)-4-((2-oxo-3-(6-propionamidopyridin-3-yl)-2,3-dihydro-1H-benzo[d]imidazol-1-yl)methyl)cyclo-hexyl)nicotinamide]",IC50,< 300 nM
"Cc1ncc(Cl)cc1C(=O)N[C@H]1CC[C@H](Cn2c(=O)n(-c3ccc(-n4ccnn4)nc3)c3ccccc32)CC1 [Example 511, N-((1r,4r)-4-((3-(6-(1H-1,2,3-triazol-1-yl)pyridin-3-yl)-2-oxo-2,3-dihydro-1H-benzo[d]imidazol-1-yl)methyl)cyclohexyl)-5-chloro-2-methylnicotinamide]",IC50,< 300 nM
"Cc1ncc(Cl)cc1C(=O)N[C@H]1CC[C@H](Cn2c(=O)n(-c3ccc(-n4nccn4)nc3)c3ccccc32)CC1 [Example 512, N-((1r,4r)-4-((3-(6-(2H-1,2,3-triazol-2-yl)pyridin-3-yl)-2-oxo-2,3-dihydro-1H-benzo[d]imidazol-1-yl)methyl)cyclohexyl)-5-chloro-2-methylnicotinamide]",IC50,< 300 nM
"Cc1ncc(Cl)cc1C(=O)N[C@H]1CC[C@H](Cn2c(=O)n(C3CCN(c4cccnc4)CC3)c3ccccc32)CC1 [Example 513, 5-chloro-2-methyl-N-((1r,4r)-4-((2-oxo-3-(1-(pyridin-3-yl)piperidin-4-yl)-2,3-dihydro-1H-benzo [d]imidazol-1-yl)methyl)cyclohexyl)nicotinamide]",IC50,< 300 nM
"CC(C)Nc1ccc(-n2c(=O)n(C[C@H]3CC[C@H](NC(=O)c4cc(Cl)cnc4C(F)F)CC3)c3ccccc32)cn1 [Example 514, 5-chloro-2-(difluoromethyl)-N-((1r,4r)-4-((3-(6-(iso-propylamino)pyridin-3-yl)-2-oxo-2,3-dihydro-1H-benzo [d]imidazol-1-yl)methyl)cyclohexyl)nicotinamide]",IC50,< 300 nM
"CC(F)(F)CNc1ccc(-n2c(=O)n(C[C@H]3CC[C@H](NC(=O)c4cc(Cl)cnc4C(F)F)CC3)c3ccccc32)cn1 [Example 515, 5-chloro-2-(difluoromethyl)-N-((1r,4r)-4-((3-(6-((2,2-difluoropropyl)amino)pyridin-3-yl)-2-oxo-2,3-dihydro-1H-benzo[d]imidazol-1-yl)methyl)cyclohexyl)nicotinamide]",IC50,< 300 nM
"Cc1ncc(Cl)cc1C(=O)N[C@H]1CC[C@H](Cn2c(=O)n(-c3cccc(-c4ncco4)c3)c3ccccc32)CC1 [Example 516, 5-chloro-2-methyl-N-((1r,4r)-4-((3-(3-(oxazol-2-yl)phenyl)-2-oxo-2,3-dihydro-1H-benzo [d]imidazol-1-yl)methyl)cyclo-hexyl)nicotinamide]",IC50,< 300 nM
"Cc1ncc(Cl)cc1C(=O)N[C@H]1CC[C@H](Cn2c(=O)n(-c3cccc(-c4cncn4C)c3)c3ccccc32)CC1 [Example 517, 5-chloro-2-methyl-N-((1r,4r)-4-((3-(3-(1-methyl-1H-imidazol-5-yl)phenyl)-2-oxo-2,3-dihydro-1H-benzo[d]imidazol-1-yl)methyl)cyclohexyl)nicotinamide]",IC50,< 300 nM
"Cc1ncc(Cl)cc1C(=O)N[C@H]1CC[C@H](Cn2c(=O)n(-c3ccc(-c4nccs4)cc3)c3ccccc32)CC1 [Example 518, 5-chloro-2-methyl-N-((1r,4r)-4-((2-oxo-3-(4-(thiazol-2-yl)phenyl)-2,3-dihydro-1H-benzo [d]imidazol-1-yl)methyl)cyclo-hexyl)nicotinamide]",IC50,< 300 nM
"Cc1ncc(Cl)cc1C(=O)N[C@H]1CC[C@H](Cn2c(=O)n(-c3ccnc(N4CCOCC4)c3)c3ccccc32)CC1 [Example 519, 5-chloro-2-methyl-N-((1r,4r)-4-((3-(2-morpholinopyridin-4-yl)-2-oxo-2,3-dihydro-1H-benzo[d]imidazol-1-yl)methyl)cyclohexyl)nicotinamide]",IC50,< 300 nM
"Cc1ncc(Cl)cc1C(=O)N[C@H]1CC[C@H](Cn2c(=O)n(-c3cccc(-n4ccnc4)n3)c3ccccc32)CC1 [Example 520, N-((1r,4r)-4-((3-(6-(1H-imidazol-1-yl)pyridin-2-yl)-2-oxo-2,3-dihydro-1H-benzo[d]imidazol-1-yl)methyl)cyclo-hexyl)-5-chloro-2-methyl-nicotinamide]",IC50,< 300 nM
